Read-outs that look alike come from different tables or passages of the source.
Key:
[1] = Systemic exposure in human subjects after topical application; conditions: in vivo
Source text: The medicaments according to the present disclosure may contain from about 0.05% to about 10% by weight, or from about 0.5% to about 10% by weight, preferably from about 1.0 to about 4.5% by weight or preferably from about 1.5 to about 4.5% by weight, of the S1P receptor modulator. […] The dose of the S1P receptor modulator used in the treatment of the aforementioned disorders will vary in the usual way with the seriousness of the disorders, the weight of the sufferer, and other similar factors. In preferred embodiments, the medicament is applied to 100 cm^2 of body surface area per 1 g of medicament, up to 1000 cm^2 of body surface area per 1 g of medicament. The medicament can be applied such that the standard daily therapeutic dosage of active compound is ≤3 g. The topical dose level and strength of dose formulation with the compound of formula (I) may be extended to higher levels without risk of bradycardia and lymphopenia. For example, dose levels of medicaments according to the methods of the present disclosure may include up to: • 1. 10 g daily dose of up to 30% ww strength formulation with 1 g up to 300 cm^2 surface area • 2. 10 g daily dose of up to 30% ww strength formulation with 1 g up to 1000 cm2 surface area • 3. 100 g daily dose of up to 3% ww strength formulation with 1 g up to 300 cm^2 surface area • 4. 100 g daily dose of up to 3% ww strength formulation with 1 g up to 1000 cm2 surface area • 5. 300 g daily dose of up to 1% ww strength formulation with 1 g up to 300 cm^2 surface area. • 6. 300 g daily dose of up to 1% ww strength formulation with 1 g up to 1000 cm^2 surface area
The body surface area of an adult is around 16,000 cm^2 to 18,000 cm^2 and the skin surface area varies from 10,000 cm^2 to 20,000 cm^2 (https://hypertextbook.com/facts/2001/IgorFridman.shtml, and references cited within). Human subjects received a topical application of 1 g of 3% by weight formulation per 150 cm^2 of body surface area (over the skin) twice daily for 21 days. The resulting systemic exposure was approximately 2.2 ng/ml.

[2] = test system: mould; assay: Anti-mould (antifungal) activity on wheat flour bread; conditions: 1% ww and 3% ww water solution on bread, day 14, room temperature
Protocol: The compound of formula I solution as 0% ww, 1% ww and 3% ww as I mL water solution was added to a glass jar (5 mL) containing the fresh wheat flour bread (1 gm). The content was mixed well in order to wet the bread with solution. The content was kept in open glass cylinder for 14 days at room temperature and light (normal conditions) and the photos of Day 1 and Day 14 were taken (FIGS. 5A and B respectively). […] The mould is common in many skin indications and other human, animal and plant diseases. For example, Rhizopus stolonifera.

[3] = Topical treatment of arthritis patients with pain; format: in vivo, human; conditions: human, in vivo, topical, 60 mg daily, day 7, 60 mg daily topical
Protocol: (§1) Fifteen arthritis patients who were experiencing pain were treated with the compound of Formula I@60 mg daily dosing as a topical treatment for seven consecutive days. […] The subjects blood parameters, urine alysis, vital signs, physical examination, ECG were normal.
(§2) The numerical rating scale for pain scoring (NRS) in a compound of Formula I treated group […] reduced from 7.1±1.38 (Day 1; baseline) to 5.8±2.12 (Day 3) and 4.8±2.72 (Day 7). The mean NRS score change from baseline was −1.3±1.54 (Day 3) and −2.3±2.06 (Day 7) points in arthritis participants treated with compound of Formula I. In osteoarthritis participants, the mean change in pain score from Day 1 to Day 7 was of −1.9±1.46 and −1.9±1.57 for pain felt and worst pain felt in 24 hours, respectively. […] The systemic exposure on day 7 ranged from 0.42 ng/mL to 2.44 ng/mL (average 0.79 ng/mL).

[4] = test system: arthritis pain; assay: Topical treatment of arthritis patients with pain; format: in vivo, human; conditions: for numerical rating scale for pain scoring (NRS): baseline Day 1 7.1±1.38
Protocol: as §1, §2

[5] = test system: excision wound; assay: Animal model of excision wound; format: in vivo, Wistar rats; conditions: 3% w/w ointment, 0.20 g/animal wound, topically twice daily
Protocol: Two groups with six Wistar rats in each group were anaesthetized with a dose of 80 mg/kg of ketamine (i.p.) and the back of the animals were shaved. One excision wound was inflicted by cutting away (with a sterile scalpel) a 600-700 mm^2 section of the full thickness of the skin from a predetermined area. The wound was left undressed to the open environment. Group 1 rats were untreated and served as sham control. Group 2 animals were treated with a compound of Formula I in an ointment formulation (3% w/w). The ointment (0.20 g/animal wound) was applied topically twice daily.

[6] = test system: formalin induced nociception; assay: Formalin induced nociception (pain); format: in vivo, Sprague Dawley rats
Protocol: Forty male Sprague Dawley rats were assigned to different treatment and control groups containing 8 animals/group. The groups were treated with different doses of a compound of Formula I and received either 0.03, 0.3 and 3.0 mg/kg dose, administered orally 30 min before formalin injection. Tramadol hydrochloride (30 mg/kg) was administered orally 30 min before formalin injection as a positive control. Deionized water was used as a negative control (Vehicle) and administered orally 30 min before formalin injection. Individual rats were then gently restrained and formalin (5% in v/v in saline, 50 μl, s.c.) was injected into the plantar surface of the left hind paw using a 27G needle. Post-formalin nociceptive behaviour, paw flinching was recorded for 60 min, in bins of 5 min. The intra plantar injection of formalin (50 μl, 5% v/v) induced marked flinching of the ipsilateral rat paw with typical biphasic response in the vehicle/distilled water treated animals. […] Inhibition of nociceptive behaviour at 0.3 mg/kg (33%, p<0.05) and 3.0 mg/kg (45%, p<0.01) were statistically significant compared to vehicle control.

Q: For `CCCOc1ccc(-c2nc(-c3ccc4oc(C(N)(CO)CO)cc4c3)no2)cc1Cl` [compound of formula (I)], which concentration at 3 weeks ([1]; 2 g daily of 3% ww formulation, 2 g daily topical 3% ww formulation for 3 weeks) is on record?
A: The concentration at 3 weeks was about 2.5 ng/mL.

Q: And the concentration at 21 days ([1]; topical, 1 g of 3% by weight formulation per 150 cm^2, 1 g of 3% by weight formulation per 150 cm2 twice daily for 21 days)?
A: The concentration at 21 days was about 2.2 ng/mL.

Q: What about the concentration at 1 week ([1]; topical, 2 g of 3% or 6% by weight formulation (60 mg or 120 mg) over the joint area for one week) of the same compound?
A: The concentration at 1 week was at most 2.5 ng/mL.

Q: What about the mould growth [2] of the same compound?
A: The mould growth was “preventing mould growth at day 14”.

Q: What about the concentration at 7 day ([3]; read-out: systemic exposure, average) of the same compound?
A: Its concentration at 7 day is 0.79 ng/mL.

Q: What about the concentration at 7 day ([3]; read-out: systemic exposure, range) of the same compound?
A: Its concentration at 7 day is 0.42 to 2.44 ng/mL.

Q: And the absolute lymphocyte count ([4]; 60 mg daily topical, 7 days)?
A: Its absolute lymphocyte count is “no systemic change in the absolute lymphocyte count”.

Q: And the safety and tolerability ([4]; 60 mg daily topical, seven days)?
A: Its safety and tolerability is “safe and well tolerated”.

Q: What about the “mean NRS score change from baseline” value ([4]; Day 3) of the same compound?
A: Its value is −1.3±1.54 points.

Q: What about the “numerical rating scale for pain scoring (NRS)” value ([4]; Day 3) of the same compound?
A: The value was 5.8±2.12.

Q: What about the “mean NRS score change from baseline” value ([4]; Day 7) of the same compound?
A: The value was −2.3±2.06 points.

Q: And the “numerical rating scale for pain scoring (NRS)” value ([4]; Day 7)?
A: The value was 4.8±2.72.

Q: What about the “positive PGART response” value ([4]; all treated participants (n=12), Day 3, 60 mg daily topical) of the same compound?
A: The value was 41.7 % participants.

Q: And the “positive PGART response” value ([4]; all treated participants (n=12), Day 7, 60 mg daily topical)?
A: The value was 58.3 % participants.

Q: And the “mean change in pain score, pain felt” value ([4]; osteoarthritis participants, Day 1 to Day 7, p=0.0153)?
A: Its value is −1.9±1.46.

Q: What about the “mean change in pain score, worst pain felt in 24 hours” value ([4]; osteoarthritis participants, Day 1 to Day 7, p=0.0205) of the same compound?
A: Its value is −1.9±1.57.

Q: And the “positive PGART response” value ([4]; participants with osteoarthritis, Day 3)?
A: The value was 28.6 % participants.

Q: What about the “positive PGART response” value ([4]; participants with osteoarthritis, Day 7) of the same compound?
A: The value was 57.1 % participants.

Q: And the wound healing [5]?
A: The wound healing was “did not inhibit or impair the wound healing”.

Q: And the “inhibition of nociceptive behaviour” value ([6]; 0.3 mg/kg oral 30 min before formalin, p<0.05)?
A: The value was 33%.

Q: What about the “inhibition of nociceptive behaviour” value ([6]; 3.0 mg/kg oral 30 min before formalin, p<0.01) of the same compound?
A: Its value is 45%.

Q: And the nociceptive behaviour ([6]; 0.03, 0.3 and 3 mg/kg oral 30 min before formalin)?
A: The nociceptive behaviour was “inhibited nociceptive behaviour”.

— US20230094545A1, “S1P RECEPTOR MODULATORS” (AKAAL PHARMA PTY LTD, priority 2020, published 2023)
